Among the data in patent US10913710B2, “Benzene disulfonamide for the treatment of cancer” (priority 2017, dated 2021) are Kd values, retold here.

The target of this experiment is PDEδ (Homo sapiens (Human), UniProt O43924). Kind of experiment: Fluorescence polarization competition binding assay: displacement titration of labeled Atorvastatin probe for KD. Conditions: fluorescence polarization assay; activity classes; read-out: KD. The method, then:
Example D.2: Displacement Titrations of Labeled Atorvastatin-Probe for the Determination of KD Values
Displacement Titrations of Labeled Atorvastatin-Probe for the Determination of KD Values:
The purification was followed by size exclusion gel filtration on a Superdex 75 S26/60 column using buffer A (25 mM Tris-HCl, pH 7.5, 150 mM NaCl and 3 mM DTE).
(In fluorescence polarisation assays a small probe gives low polarisation when free and higher when bound to something large.)
Usually Kd stands for the concentration at which binding is half-saturated. On to `CCOc1ccc(CN(C2CC2)S(=O)(=O)c2ccc(S(=O)(=O)N(C)C)cc2)cc1` [Compound 69, N1-cyclopropyl-N1-(4-ethoxybenzyl)-N4,N4-dimethylbenzene-1,4-disulfonamide], for which the Kd was in the range of 100 to 1000 nM. The result for `O=S(=O)(NCc1ccccc1)c1ccc(S(=O)(=O)N(Cc2ccc(Cl)cc2)C2CCCC2)cc1` [Compound 13] reads 30 to 100 nM; that for `O=S(=O)(c1ccc(S(=O)(=O)N(Cc2ccc(F)cc2)CC2CCCO2)cc1)N1CCCCC1` (centres unmarked) [Compound 80, N-(4-fluorobenzyl)-4-(piperidin-1-ylsulfonyl)-N-((tetrahydrofuran-2-yl)methyl)benzenesulfonamide], 30 to 100 nM; that for `COc1ccc(CN(Cc2ccc(OC)c(OC)c2)S(=O)(=O)c2ccc(S(=O)(=O)N3CCCCC3)cc2)cc1` [Compound 95, N-(3,4-dimethoxybenzyl)-N-(4-methoxybenzyl)-4-(piperidin-1-ylsulfonyl)benzenesulfonamide], greater than 1000 nM. On to `O=S(=O)(NCC1CCCO1)c1ccc(S(=O)(=O)N(Cc2ccccc2)Cc2ccc(Cl)cc2)cc1` (centres unmarked) [Compound 62, N1-benzyl-N1-(4-chlorobenzyl)-N4-((tetrahydrofuran-2-yl)methyl)benzene-1,4-disulfonamide], for which the equilibrium dissociation constant (Kd) is 100 to 1000 nM. For `CC1CCCN(S(=O)(=O)c2ccc(S(=O)(=O)N(Cc3ccccc3F)C3CCCC3)cc2)C1` (centres unmarked) [Compound 58, N-cyclopentyl-N-(2-fluorobenzyl)-4-((3-methylpiperidin-1-yl)sulfonyl)benzenesulfonamide] the value was 30 to 100 nM; for `COc1ccc(CN(Cc2ccc(C)cc2)S(=O)(=O)c2ccc(S(=O)(=O)N(C)Cc3ccccc3)cc2)cc1` [Compound 73, N1-benzyl-N4-(4-methoxybenzyl)-N1-methyl-N4-(4-methylbenzyl)benzene-1,4-disulfonamide], 100 to 1000 nM; for `CC(C)c1ccc(CN(Cc2ccco2)S(=O)(=O)c2ccc(S(=O)(=O)N(C)Cc3ccccc3)cc2)cc1` [Compound 59, N1-benzyl-N4-(furan-2-ylmethyl)-N4-(4-isopropylbenzyl)-N1-methylbenzene-1,4-disulfonamide], 100 to 1000 nM. For `O=S(=O)(NCc1ccccc1)c1ccc(S(=O)(=O)N(Cc2ccc(Cl)cc2)C2CCCC2)cc1` [Compound 100, N1-benzyl-N4-(4-chlorobenzyl)-N4-cyclopentylbenzene-1,4-disulfonamide] the value was 30 to 100 nM; for `O=S(=O)(c1ccc(S(=O)(=O)N(Cc2ccccc2)Cc2ccc(F)cc2)cc1)N1CCCC1` [Compound 86, N-benzyl-N-(4-fluorobenzyl)-4-(pyrrolidin-1-ylsulfonyl)benzenesulfonamide], greater than 1000 nM.

On to `O=S(=O)(c1ccc(S(=O)(=O)N(Cc2ccccn2)C2CCCO2)cc1)N(Cc1ccccn1)C1CCCO1` (centres unmarked) [Compound 1], for which the Kd lay within 100 to 1000 nM. As to `CCN(Cc1ccccc1)S(=O)(=O)c1ccc(S(=O)(=O)N(Cc2ccccc2)Cc2ccccn2)cc1` [Compound 48, N1,N4-dibenzyl-N1-ethyl-N4-(pyridin-2-ylmethyl)benzene-1,4-disulfonamide], the Kd lay in the range of 1 to 30 nM.

Consider `CCN(Cc1ccccc1)S(=O)(=O)c1ccc(S(=O)(=O)N(Cc2ccccc2F)CC2CCCO2)cc1` (centres unmarked) [Compound 55, N1-benzyl-N1-ethyl-N4-(2-fluorobenzyl)-N4-((tetrahydrofuran-2-yl)methyl)benzene-1,4-disulfonamide], for which the Kd fell in the range of 1 to 30 nM. Regarding `COc1ccc(CN(C2CCCCC2C)S(=O)(=O)c2ccc(S(=O)(=O)NCc3ccccc3)cc2)cc1OC` (centres unmarked) [Compound 70, N1-benzyl-N4-(3,4-dimethoxybenzyl)-N4-(2-methylcyclohexyl)benzene-1,4-disulfonamide], the Kd lay in the range of 100 to 1000 nM.

`CCOc1ccccc1CN(Cc1ccco1)S(=O)(=O)c1ccc(S(=O)(=O)N(CC)C2CCCCC2)cc1` [Compound 89, N1-cyclohexyl-N4-(2-ethoxybenzyl)-N1-ethyl-N4-(furan-2-ylmethyl)benzene-1,4-disulfonamide]: the Kd lay in the range of 1 to 30 nM. The result for `Cc1ccc(CN(C2CCCC2)S(=O)(=O)c2ccc(S(=O)(=O)N(Cc3ccccn3)c3sccc3C)cc2)cc1` [Compound 42] reads 100 to 1000 nM; that for `CC(C)(C)[Si](C)(C)OCCCCN(CC1CCCCC1)S(=O)(=O)c1ccc(S(=O)(=O)N(Cc2ccc(Cl)cc2)C2CCCC2)cc1` [Compound 30], 100 to 1000 nM. For `O=S(=O)(c1ccc(S(=O)(=O)N(Cc2ccc(Cl)cc2)CC2CCCO2)cc1)N1CCCCC1` (centres unmarked) [Compound 82, N-(4-chlorobenzyl)-4-(piperidin-1-ylsulfonyl)-N-((tetrahydrofuran-2-yl)methyl)benzenesulfonamide] the value was 100 to 1000 nM. The result for `CN(C1CCCCC1)S(=O)(=O)c1ccc(S(=O)(=O)N(Cc2ccc(F)cc2)C2CC2)cc1` [Compound 83, N1-cyclohexyl-N4-cyclopropyl-N4-(4-fluorobenzyl)-N1-methylbenzene-1,4-disulfonamide] reads 30 to 100 nM; that for `CN(Cc1ccccc1)S(=O)(=O)c1ccc(S(=O)(=O)N(Cc2ccc(Cl)cc2)Cc2ccco2)cc1` [Compound 74, N1-benzyl-N4-(4-chlorobenzyl)-N4-(furan-2-ylmethyl)-N1-methylbenzene-1,4-disulfonamide], greater than 1000 nM; that for `COc1cccc(CN(CC2CCCO2)S(=O)(=O)c2ccc(S(=O)(=O)N3CCCC3)cc2)c1` (centres unmarked) [Compound 67, N-(3-methoxybenzyl)-4-(pyrrolidin-1-ylsulfonyl)-N-((tetrahydrofuran-2-yl)methyl)benzenesulfonamide], 100 to 1000 nM. With `CN(Cc1ccccc1)S(=O)(=O)c1ccc(S(=O)(=O)N(Cc2ccc(F)cc2)C2CCCC2)cc1` [Compound 91, N1-benzyl-N4-cyclopentyl-N4-(4-fluorobenzyl)-N1-methylbenzene-1,4-disulfonamide], the Kd was in the range of 30 to 100 nM.

For the compound `COc1cccc(CN(C2CC2)S(=O)(=O)c2ccc(S(=O)(=O)NCc3ccccc3)cc2)c1OC` [Compound 51, N1-benzyl-N4-cyclopropyl-N4-(2,3-dimethoxybenzyl)benzene-1,4-disulfonamide], the Kd is 100 to 1000 nM. Regarding `COc1cc(CN(C2CCCCC2)S(=O)(=O)c2ccc(S(=O)(=O)N(C)C3CCCCC3)cc2)cc(OC)c1OC` [Compound 64, N1,N4-dicyclohexyl-N1-methyl-N4-(3,4,5-trimethoxybenzyl)benzene-1,4-disulfonamide], the Kd is 100 to 1000 nM. `CC(C)(C)OC(=O)N1CCC(CN(Cc2ccccc2)S(=O)(=O)c2ccc(S(=O)(=O)NC3CCCC3)cc2)CC1` [Compound 3]: the Kd is greater than 1000 nM. The result for `CC(C)(C)[Si](C)(C)OCCCN(CC1CCCCC1)S(=O)(=O)c1ccc(S(=O)(=O)N(Cc2ccc(Cl)cc2)C2CCCC2)cc1` [Compound 29] reads 100 to 1000 nM; that for `O=S(=O)(NCC1CCCCC1)c1ccc(S(=O)(=O)N(Cc2ccc(Cl)cc2)C2CCCC2)cc1` [Compound 8], 30 to 100 nM.

As to `O=S(=O)(c1ccc(S(=O)(=O)N(Cc2ccccc2)CC2CCNCC2)cc1)N(Cc1ccccc1)CC1CCNCC1` [Compound 18, N1,N4-dibenzyl-N1,N4-bis(piperidin-4-ylmethyl)benzene-1,4-disulfonamide], the Kd lay within 100 to 1000 nM. The result for `COc1ccc(CN(Cc2ccc3c(c2)OCO3)S(=O)(=O)c2ccc(S(=O)(=O)N3CCCC(C)C3)cc2)cc1OC` (centres unmarked) [Compound 94, N-(benzo[d][1,3]dioxol-5-ylmethyl)-N-(3,4-dimethoxybenzyl)-4-((3-methylpiperidin-1-yl)sulfonyl)benzenesulfonamide] reads greater than 1000 nM. Turning to `CCN(CC)S(=O)(=O)c1ccc(S(=O)(=O)N(Cc2ccc(F)cc2)Cc2cccc(OC)c2OC)cc1` [Compound 87, N1-(2,3-dimethoxybenzyl)-N4,N4-diethyl-N1-(4-fluorobenzyl)benzene-1,4-disulfonamide], the Kd was greater than 1000 nM. For `CC(C)c1ccc(CN(CC2CCCO2)S(=O)(=O)c2ccc(S(=O)(=O)N(C)C3CCCCC3)cc2)cc1` (centres unmarked) [Compound 56, N1-cyclohexyl-N4-(4-isopropylbenzyl)-N1-methyl-N4-((tetrahydrofuran-2-yl)methyl)benzene-1,4-disulfonamide] the value was 1 to 30 nM; for `Nc1ccc(Br)c(CN(CC2CCNCC2)S(=O)(=O)c2ccc(S(=O)(=O)N(Cc3ccc(Cl)cc3)C3CCCC3)cc2)c1` [Compound 2, N1-(5-amino-2-bromobenzyl)-N4-(4-chlorobenzyl)-N4-cyclopentyl-N1-(piperidin-4-ylmethyl)benzene-1,4-disulfonamide], 100 to 1000 nM; for `O=S(=O)(c1ccc(S(=O)(=O)N(Cc2ccc(Cl)cc2)C2CCCC2)cc1)N(Cc1cncnc1)CC1CCNCC1` [Compound 27, N1-(4-chlorobenzyl)-N1-cyclopentyl-N4-(piperidin-4-ylmethyl)-N4-(pyrimidin-5-ylmethyl)benzene-1,4-disulfonamide], 1 to 30 nM. For `COc1cc(CN(C2CCCCC2C)S(=O)(=O)c2ccc(S(=O)(=O)NC3CCCC3)cc2)cc(OC)c1OC` (centres unmarked) [Compound 60, N1-cyclopentyl-N4-(2-methylcyclohexyl)-N4-(3,4,5-trimethoxybenzyl)benzene-1,4-disulfonamide], the Kd fell in the range of 100 to 1000 nM. On to `CCOc1ccccc1CN(Cc1ccco1)S(=O)(=O)c1ccc(S(=O)(=O)NC2CCCCC2)cc1` [Compound 76, N1-cyclohexyl-N4-(2-ethoxybenzyl)-N4-(furan-2-ylmethyl)benzene-1,4-disulfonamide], for which the Kd lay within 100 to 1000 nM.

As for `O=S(=O)(NCc1ccc(O)cc1)c1ccc(S(=O)(=O)N(Cc2ccc(Cl)cc2)C2CCCC2)cc1` [Compound 14], the equilibrium dissociation constant (Kd) lay in the range of 30 to 100 nM. For `O=S(=O)(c1ccc(S(=O)(=O)N(Cc2ccc(Cl)cc2)C2CCCC2)cc1)N(CCN1CCNCC1)Cc1ccccc1` [Compound 10, N1-benzyl-N4-(4-chlorobenzyl)-N4-cyclopentyl-N1-(2-(piperazin-1-yl)ethyl)benzene-1,4-disulfonamide] the value was 1 to 30 nM; for `O=S(=O)(NCc1ccccc1)c1ccc(S(=O)(=O)N(Cc2ccc(Cl)cc2)Cc2ccco2)cc1` [Compound 90, N1-benzyl-N4-(4-chlorobenzyl)-N4-(furan-2-ylmethyl)benzene-1,4-disulfonamide], 100 to 1000 nM.
